Assay results taken from patent publication US20060063759A1, “Tricyclic steroid hormone nuclear receptor modulators” (priority 2002, published 2006).

Tests used:
[1] = biological target: T1, human MR (Homo sapiens, UniProt P08235); assay: Mineralocorticoid Receptor Binding Assay ([3H]-aldosterone); conditions: [3H]-aldosterone binding, human MR expressed in Sf9 cells; read-out: MR Ki
T1 construct: The full length human MR gene is cloned from a human kidney or human brain cDNA library; His tag from the pAcHLT vector (own knowledge); made in house; host or cells: Sf9 insect cells (baculovirus, pAcHLT transfer vector)
T1 sequence (P08235 1-984): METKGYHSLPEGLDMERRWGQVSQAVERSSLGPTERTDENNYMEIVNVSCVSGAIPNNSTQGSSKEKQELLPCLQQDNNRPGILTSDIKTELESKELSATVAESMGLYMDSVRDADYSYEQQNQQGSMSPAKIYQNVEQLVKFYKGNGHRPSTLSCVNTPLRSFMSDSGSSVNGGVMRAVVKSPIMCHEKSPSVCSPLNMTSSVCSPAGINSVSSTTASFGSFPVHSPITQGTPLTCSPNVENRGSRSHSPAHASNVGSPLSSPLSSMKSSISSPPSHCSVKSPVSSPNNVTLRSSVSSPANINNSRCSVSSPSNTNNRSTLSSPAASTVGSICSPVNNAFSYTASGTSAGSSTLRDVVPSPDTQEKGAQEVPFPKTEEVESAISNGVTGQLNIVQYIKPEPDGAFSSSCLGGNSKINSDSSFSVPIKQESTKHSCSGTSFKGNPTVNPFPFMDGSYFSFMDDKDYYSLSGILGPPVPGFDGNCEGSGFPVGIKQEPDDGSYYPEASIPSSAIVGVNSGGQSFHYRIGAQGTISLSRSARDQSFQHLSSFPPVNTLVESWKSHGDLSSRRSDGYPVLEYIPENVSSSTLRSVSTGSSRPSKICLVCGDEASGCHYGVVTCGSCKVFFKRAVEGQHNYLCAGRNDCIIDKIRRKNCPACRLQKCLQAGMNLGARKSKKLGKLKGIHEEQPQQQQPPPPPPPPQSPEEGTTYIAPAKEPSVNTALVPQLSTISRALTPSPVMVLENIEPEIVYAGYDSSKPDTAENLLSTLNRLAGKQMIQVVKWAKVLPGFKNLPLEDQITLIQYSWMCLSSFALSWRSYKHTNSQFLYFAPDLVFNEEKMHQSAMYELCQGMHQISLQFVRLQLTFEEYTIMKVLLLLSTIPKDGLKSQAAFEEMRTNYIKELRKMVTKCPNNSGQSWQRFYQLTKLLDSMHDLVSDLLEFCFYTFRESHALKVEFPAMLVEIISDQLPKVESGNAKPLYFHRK
How it was run: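 Lysate supernatant of Sf9 cells expressing full-length human MR (20-25 μg protein) was incubated with 0.5 nM [3H]-aldosterone and test compound in molybdate/Tris/phosphate/glycerol buffer, pH 7.5, ~16 h at 4 °C. Bound ligand was filtered and counted by scintillation; IC50 is the concentration halving [3H]-aldosterone binding.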

[2] = biological target: T2, glucocorticoid receptor (Homo sapiens, UniProt P04150); assay: Glucocorticoid Receptor Binding Assay ([3H]-dexamethasone, A549 cell extract); conditions: [3H]-dexamethasone binding, read-out: GR Ki
T2 construct: containing 50-200 ug of A549 cell extract and 1.86 nM [^3H]-dexamethasone; host or cells: A549 human lung epithelial cells (sonicated cell extract)
T2 sequence (P04150 1-777): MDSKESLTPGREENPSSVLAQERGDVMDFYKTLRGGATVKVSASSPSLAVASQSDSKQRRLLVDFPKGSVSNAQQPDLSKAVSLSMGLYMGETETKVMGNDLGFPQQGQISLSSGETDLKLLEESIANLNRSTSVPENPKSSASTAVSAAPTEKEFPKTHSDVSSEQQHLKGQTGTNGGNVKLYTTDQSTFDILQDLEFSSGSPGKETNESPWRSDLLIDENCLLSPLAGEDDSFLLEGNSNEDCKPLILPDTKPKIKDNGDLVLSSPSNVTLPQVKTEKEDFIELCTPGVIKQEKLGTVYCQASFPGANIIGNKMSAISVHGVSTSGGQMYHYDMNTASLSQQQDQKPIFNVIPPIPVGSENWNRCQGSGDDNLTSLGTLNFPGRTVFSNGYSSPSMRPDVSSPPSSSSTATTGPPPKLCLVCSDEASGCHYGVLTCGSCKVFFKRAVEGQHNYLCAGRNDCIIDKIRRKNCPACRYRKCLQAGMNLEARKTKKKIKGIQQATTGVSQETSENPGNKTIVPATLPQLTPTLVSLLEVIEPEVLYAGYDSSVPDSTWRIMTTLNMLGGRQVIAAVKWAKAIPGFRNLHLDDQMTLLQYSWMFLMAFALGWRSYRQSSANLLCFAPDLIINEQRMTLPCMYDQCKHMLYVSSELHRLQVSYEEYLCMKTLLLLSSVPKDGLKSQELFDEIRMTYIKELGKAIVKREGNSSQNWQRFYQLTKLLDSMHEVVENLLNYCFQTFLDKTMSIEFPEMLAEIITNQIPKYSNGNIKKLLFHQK
How it was run: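 A549 cell extract (50–200 ug) incubated with 1.86 nM [3H]-dexamethasone and test compound for 16 h at 4 °C in Tris-HCl pH 7.2 buffer with glycerol and molybdate. Unbound radioligand removed by dextran-coated charcoal, then supernatant bound counts measured by scintillation.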

NC(=O)Nc1ccc(C=C2c3ccccc3CCc3ccccc32)cc1 [Example 129, [4-(10,11-Dihydro-dibenzo[a,d]cyclohepten-5-ylidenemethyl)-phenyl]-urea] gave a Ki [1] of less than 500 nM and a Ki [2] of less than 500 nM.

Molecule Cc1ccccc1C=C1c2ccccc2CCc2ccccc21 [Example 130, 5-(2-Methyl-benzylidene)-10,11-dihydro-5H-dibenzo [a,d]cycloheptene] has a Ki [1] of less than 500 nM and a Ki [2] of less than 10000 nM.

For Cc1ccccc1CC1c2ccccc2CCc2ccccc21 [Example 131, 5-(2-Methyl-benzyl)-10,11-dihydro-5H-dibenzo[a,d]cycloheptene], the Ki [1] was less than 500 nM and the Ki [2] was less than 10000 nM.

Cc1cccc(C=C2c3ccccc3CCc3ccccc32)c1 [Example 132, 5-(3-Methyl-benzylidene)-10,11-dihydro-5H-dibenzo[a,d]cycloheptene] gave a Ki [1] of less than 500 nM and a Ki [2] of less than 1000 nM.

Cc1cccc(CC2c3ccccc3CCc3ccccc32)c1 [Example 133, 5-(3-Methyl-benzyl)-10,11-dihydro-5H-dibenzo[a,d]cycloheptene] was tested, and the Ki [1] was less than 500 nM and the Ki [2] was less than 1000 nM.

FC(F)(F)c1cccc(CC2c3ccccc3CCc3ccccc32)c1 [Example 137, 5-(3-Trifluoromethyl-benzyl)-10,11-dihydro-5H-dibenzo[a,d]cycloheptene] was tested, and the Ki [1] was less than 500 nM and the Ki [2] was less than 1000 nM.

Work on FC(F)(F)c1cc(CC2c3ccccc3CCc3ccccc32)cc(C(F)(F)F)c1 [Example 141, 5-(3,5-Bis-Trifluoromethyl-benzyl)-10,11-dihydro-5H-dibenzo[a,d]cycloheptene] yielded a Ki [1] of less than 500 nM and a Ki [2] of less than 500 nM.

Molecule Cn1cnc(S(=O)(=O)Nc2ccc(C=C3c4ccccc4CCc4ccccc43)cc2)c1 [Example 143, 1-Methyl-1H-imidazole-4-sulfonic acid [4-(10,11-dihydro-dibenzo[a,d]cyclohepten-5-ylidenemethyl)-phenyl]-amide] has a Ki [1] of less than 500 nM and a Ki [2] of less than 10000 nM.

CS(=O)(=O)NCc1cccc(C=C2c3ccccc3CCc3ccccc32)c1 [Example 145, N-[3-(10,11-Dihydro-dibenzo[a,d]cyclohepten-5-ylidenemethyl)-benzyl]-methanesulfonamide] was tested, and the Ki [1] was less than 500 nM and the Ki [2] was less than 500 nM.

With COc1cc(C=C2c3ccccc3CCc3ccccc32)ccc1F [Example 148, 5-(4-Fluoro-3-methoxy-benzylidene)-10,11-dihydro-5H-dibenzo[a,d]cycloheptene] the Ki [1] was less than 500 nM and the Ki [2] was less than 1000 nM.

For Oc1cc(C=C2c3ccccc3CCc3ccccc32)ccc1F [Example 149, 5-(10,11-Dihydro-dibenzo[a,d]cyclohepten-5-ylidenemethyl)-2-fluoro-phenol], the Ki [1] was less than 500 nM and the Ki [2] was less than 500 nM.

For Oc1ccc(F)c(C=C2c3ccccc3CCc3ccccc32)c1 [Example 151, 3-(10,11-Dihydro-dibenzo[a,d]cyclohepten-5-ylidenemethyl)-4-fluoro-phenol], the Ki [1] was less than 500 nM and the Ki [2] was less than 1000 nM.

Molecule COc1cccc(C=C2c3ccccc3CCc3ccccc32)c1F [Example 152, 5-(2-Fluoro-3-methoxy-benzylidene)-10,11-dihydro-5H-dibenzo[a,d]cycloheptene] has a Ki [1] of less than 500 nM and a Ki [2] of less than 10000 nM.

In the case of COc1cc(F)cc(C=C2c3ccccc3CCc3ccccc32)c1 [Example 154, 5-(3-Fluoro-5-methoxy-benzylidene)-10,11-dihydro-5H-dibenzo[a,d]cycloheptene], the Ki [1] is reported as less than 500 nM and the Ki [2] is reported as less than 1000 nM.

Oc1cc(F)cc(C=C2c3ccccc3CCc3ccccc32)c1 [Example 155, 3-(10,11-Dihydro-dibenzo[a,d]cyclohepten-5-ylidenemethyl)-5-fluoro-phenol] showed a Ki [1] of less than 500 nM and a Ki [2] of less than 500 nM.

Oc1cc(C=C2c3ccccc3CCc3ccccc32)ccc1Cl [Example 157, 2-Chloro-5-(10,11-dihydro-dibenzo[a,d]cyclohepten-5-ylidenemethyl)-phenol] was tested, and the Ki [1] was less than 500 nM and the Ki [2] was less than 1000 nM.

Work on COc1ccc2c(c1)CCc1ccccc1C2=Cc1cccc(NS(C)(=O)=O)c1 [Example 161, N-[3-(2-Methoxy-10,11-dihydro-dibenzo[a,d]cyclohepten-5-ylidenemethyl)-phenyl]-methanesulfonamide] yielded a Ki [1] of less than 500 nM and a Ki [2] of less than 500 nM.

Work on COc1cc2c(cc1OC)C(=Cc1cccc(NS(C)(=O)=O)c1)c1ccccc1CC2 [Example 170(a), N-[3-(2,3-Dimethoxy-10,11-dihydro-dibenzo[a,d]cyclohepten-5-ylidenemethyl)-phenyl]-methanesulfonamide] yielded a Ki [1] of less than 500 nM and a Ki [2] of less than 1000 nM.

With COc1cc2c(cc1OC)C(=Cc1cccc(NS(C)(=O)=O)c1)c1ccccc1CC2 [Example 170(b), N-[3-(2,3-Dimethoxy-10,11-dihydro-dibenzo[a,d]cyclohepten-5-ylidenemethyl)-phenyl]-methanesulfonamide] the Ki [1] was less than 500 nM and the Ki [2] was less than 500 nM.

For FC(F)(F)c1ccccc1C=C1c2ccccc2CCc2cc(Cl)ccc21 [Example 174, 2-Chloro-5-(2-trifluoromethyl-benzylidene)-10,11-dihydro-5H-dibenzo[a,d]cycloheptene], the Ki [1] was less than 500 nM and the Ki [2] was less than 1000 nM.

Cc1ccccc1C=C1c2ccccc2CCc2cc(Cl)ccc21 [Example 175, 2-Chloro-5-(2-methyl-benzylidene)-10,11-dihydro-5H-dibenzo[a,d]cycloheptene] showed a Ki [1] of less than 500 nM and a Ki [2] of less than 10000 nM.

With Cc1cccc(C=C2c3ccccc3CCc3cc(Cl)ccc32)c1 [Example 177, 2-Chloro-5-(3-methyl-benzylidene)-10,11-dihydro-5H-dibenzo[a,d]cycloheptene] the Ki [1] was less than 500 nM and the Ki [2] was less than 1000 nM.

Oc1ccc(C=C2c3ccccc3CCc3cc(Cl)ccc32)cc1 [Example 180, 4-(2-Chloro-10,11-dihydro-dibenzo[a,d]cyclohepten-5-ylidenemethyl)-phenol] showed a Ki [1] of less than 500 nM and a Ki [2] of less than 1000 nM.

Oc1cccc(C=C2c3ccc(Cl)cc3CCc3cc(Cl)ccc32)c1 [Example 183, 3-(2,8-Dichloro-10,11-dihydro-dibenzo[a,d]cyclohepten-5-ylidenemethyl)-phenol] showed a Ki [1] of less than 500 nM and a Ki [2] of less than 500 nM.

Work on Oc1cccc(CC2c3ccccc3CCc3c(F)cccc32)c1 (stereo not drawn) [Example 186, 3-(1-Fluoro-10,11-dihydro-5H-dibenzo[a,d]cyclohepten-5-ylmethyl)-phenol] yielded a Ki [1] of less than 500 nM and a Ki [2] of less than 500 nM.

CS(=O)(=O)Nc1cccc(CC2c3ccccc3CCc3c(F)cccc32)c1 (stereo not drawn) [Example 187, N-[3-(1-Fluoro-10,11-dihydro-5H-dibenzo[a,d]cyclohepten-5-ylmethyl)-phenyl]-methanesulfonamide] showed a Ki [1] of less than 500 nM and a Ki [2] of less than 500 nM.

Work on CS(=O)(=O)Nc1cccc(CC2c3ccccc3CCc3ccc(Cl)cc32)c1 (stereo not drawn) [Example 189, N-[3-(3-Chloro-10,11-dihydro-5H-dibenzo[a,d]cyclohepten-5-ylmethyl)-phenyl]-methanesulfonamide] yielded a Ki [1] of less than 500 nM and a Ki [2] of less than 500 nM.
